According to patent publication US7579365B2 (ZIOPHRAM Oncology, Inc., priority 1998, dated 2009):
In brackets after ≈: the same amount, converted by molar mass. Like-named read-outs stand apart in the source and are kept apart here.

Key:
L1210 = L1210 leukemia model in vivo (% ILS, survival time); set-up: species or system mouse; settings: for ILS at 46.4 mg/kg: read-out: % ILS L1210
Excerpt: In the hollow fiber assay, both compounds were almost equally strongly active, while on L 1210 D-24851 was markedly more strongly active after oral and intraperitoneal administration than D-24241.

[1] = for Tox. p.o.: p.o. (Table 5)
KB cell line = assay: XTT proliferation test/cytotoxicity test, KB cell line; format: cell-based; settings: for EC50: Homo sapiens, KB, read-out: XTT EC50 KB
Protocol: (§1) In this test system, the effect of substances on the proliferation behavior of tumor cell lines is investigated. In the course of this, the cytotoxic potential of these substances is determined. The test method is described in Scudiero et al. 1988, Cancer Res. 48, 4827.
(§2) The following tumor cell lines were employed in the investigations:
(§3) The KB cell line an epidermal carcinoma of the oral cavity,
(§4) the L1210 cell line a lymphatic leukemia of the mouse, the LNCAP cell line a prostate carcinoma and the SK-OV-3 cell line an ovarian carcinoma.

L1210 cell line = assay: XTT proliferation test/cytotoxicity test, L1210 cell line; format: cell-based, mouse; settings: for EC50: Mus musculus; for XTT EC50 L1210: L1210 tumor cells
Protocol: as §1, §2, §3, §4

LNCAP cell line = assay: XTT proliferation test/cytotoxicity test, LNCAP cell line; format: cell-based; settings: for EC50: Homo sapiens, read-out: XTT EC50 LNCaP
Protocol: as §1, §2, §3, §4

SK-OV-3 cell line = assay: XTT proliferation test/cytotoxicity test, SK-OV-3 cell line; format: cell-based; settings: for EC50: Homo sapiens; for XTT EC50 SK-OV-3: SK-OV-3 tumor cells
Protocol: as §1, §2, §3, §4

[2] = L1210, L1210 tumor cells, read-out: XTT EC50 L1210
[3] = SK-OV-3, SK-OV-3 tumor cells, read-out: XTT EC50 SK-OV-3
[4] = L1210, read-out: XTT EC50 L1210
[5] = SK-OV-3, read-out: XTT EC50 SK-OV-3

COc1cc([C@@H]2c3cc4c(cc3[C@@H](O[C@@H]3O[C@@H]5CO[C@@H](C)O[C@H]5[C@H](O)[C@H]3O)[C@H]3COC(=O)[C@H]23)OCO4)cc(OC)c1O [Etoposide]
ILS at 46.4 mg/kg (L1210; Mus musculus, L1210, ip, 1 × 46.4 mg/kg i.p.): 56%
Tox. i.p. ([1]; in vivo, ip): ≈158.0 i.p. mg/kg
Tox. i.v. ([1]; in vivo, iv): >68.1 i.v. mg/kg

COc1cccc2c1C(=O)c1c(O)c3c(c(O)c1C2=O)C[C@@](O)(C(=O)CO)C[C@@H]3O[C@H]1C[C@H](N)[C@H](O)[C@H](C)O1 [Adriamycin, reference compound]
EC50 (KB cell line; KB tumor cells): 0.15 mg/L (≈ 0.276 µM)
EC50 (L1210 cell line; [2]): 0.174 mg/L (≈ 0.32 µM)
EC50 (LNCAP cell line; LNCaP tumor cells): 0.17 mg/L (≈ 0.313 µM)
EC50 (SK-OV-3 cell line; [3]): 0.089 mg/L (≈ 0.164 µM)
ILS at 14.7 mg/kg (L1210; Mus musculus, L1210, iv, 1 × 14.7 mg/kg i.v.): 111%
Tox. i.v. ([1]; i.v. (Table 5)): ≈27.0 i.v. mg/kg

O=C(Nc1ccccn1)C(=O)c1cn(Cc2ccc(F)cc2)c2ccccc12 [Example 15, N-(Pyridin-2-yl)-[1-(4-fluorobenzyl)indol-3-yl]glyoxylamide]
EC50 (KB cell line): > 31.6 mg/L
EC50 (L1210 cell line; [4]): 3.1 mg/L (≈ 8.3 µM)
EC50 (LNCAP cell line; LNCaP): > 31.6 mg/L
EC50 (SK-OV-3 cell line; [5]): > 31.6 mg/L

O=P1(N(CCCl)CCCl)NCCCO1 (stereo not drawn) [Cyclophosphamide, reference compound]
ILS at 46.4 mg/kg (L1210; Mus musculus, L1210, iv): 40%
Tox. i.v. ([1]; i.v. (Table 5)): ≈340.7 i.v. mg/kg

CCCCCCCCCCCCCCCCOP(=O)([O-])OCC[N+](C)(C)C [Miltefosine]
L1210 antitumor action (Table 5) (L1210; no dose given): no action
Tox. i.p. ([1]; i.p. (Table 5)): ≈46.4 i.p. mg/kg
Tox. p.o. [1]: ≈464-1000 mg/kg

O=P1(NCCCl)OCCCN1CCCl (stereo not drawn) [Ifosfamide, reference compound]
ILS at 316 mg/kg (L1210; Mus musculus, L1210, ip, 1 × x 316 mg/kg i.p.): 89%
Tox. i.p. ([1]; i.p. (Table 5)): ≈732 i.p. mg/kg

C[C@@H]1[O][Pt]2([NH]CC3CCC3C[NH]2)[O]C1=O (stereo partly drawn) [Lobaplatin, reference compound]
% ILS L1210 (L1210; 1 × 14.7 mg/kg ip): 55.0% ILS
Tox. i.p. ([1]; in vivo, ip): ≈34.0 i.p. mg/kg

CC[C@]1(O)C[C@H]2CN(CCc3c([nH]c4ccccc34)[C@@](C(=O)OC)(c3cc4c(cc3OC)N(C=O)[C@H]3[C@@](O)(C(=O)OC)[C@H](OC(C)=O)[C@]5(CC)C=CCN6CC[C@]43[C@@H]65)C2)C1 [Vincristine, reference compound]
EC50 (KB cell line; KB tumor cells): < 0.001 mg/L
EC50 (L1210 cell line; [2]): 0.004 mg/L (≈ 0.00485 µM)
EC50 (LNCAP cell line; LNCaP, LNCaP tumor cells): 0.004 mg/L (≈ 0.00485 µM)
EC50 (SK-OV-3 cell line; [3]): 0.003 mg/L (≈ 0.00364 µM)
ILS at 1 mg/kg (L1210; Mus musculus, L1210, ip, 1 × 1.0 mg/kg i.p.): 29%
Tox. i.v. ([1]; i.v. (Table 5)): ≈3.0 i.v. mg/kg

O=C1c2c(O)ccc(O)c2C(=O)c2c(NCCNCCO)ccc(NCCNCCO)c21 [Mitoxantrone, reference compound]
EC50 (KB cell line; KB tumor cells): ~0.174 mg/L (≈ 0.391 µM)
EC50 (L1210 cell line; [2]): < 0.0003 mg/L
EC50 (LNCAP cell line; LNCaP tumor cells): ~0.017 mg/L (≈ 0.0382 µM)
EC50 (SK-OV-3 cell line; [3]): ~0.174 mg/L (≈ 0.391 µM)
ILS at 4.64 mg/kg (L1210; Mus musculus, L1210, iv, 1 × 4.64 mg/kg i.v.): 144%
Tox. i.v. ([1]; i.v. (Table 5)): 16 i.v. mg/kg

C/C(=C\c1csc(C)n1)[C@@H]1C[C@@H]2O[C@]2(C)CCC[C@H](C)[C@H](O)[C@@H](C)C(=O)C(C)(C)[C@@H](O)CC(=O)O1 [Epothilone B, reference compound]
XTT EC50 KB (KB cell line; KB tumor cells): KB ~ 0.0002 μg/ml
XTT EC50 L1210 (L1210 cell line): L1210 ~ 0.0017 μg/ml
XTT EC50 LNCaP (LNCAP cell line; LNCaP tumor cells): LNCAR ~ 0.014 μg/ml
XTT EC50 SK-OV-3 (SK-OV-3 cell line): SKOV3 ~ 0.0031 μg/ml
% ILS L1210 (L1210; 1 × 10 mg/kg i.p.): 44% ILS
Tox. i.p. ([1]; i.p. (Table 5)): ≈100.0 i.p. mg/kg

O=C(Nc1ccc(F)cc1)C(=O)c1cn(Cc2ccc(F)cc2)c2ccccc12 [Example 6, N-(4-Fluorophenyl)-[1-(4-fluorobenzyl)indol-3-yl]glyoxylamide]
EC50 (KB cell line; KB tumor cells): 3.1 mg/L (≈ 7.94 µM)
EC50 (L1210 cell line; [2]): 1.75 mg/L (≈ 4.48 µM)
EC50 (LNCAP cell line; LNCaP tumor cells): > 31.6 mg/L
EC50 (SK-OV-3 cell line; [3]): 17.5 mg/L (≈ 44.8 µM)

N.N.O=C([O-])C1(C(=O)[O-])CCC1.[Pt+2] [Carboplatin]
% ILS L1210 (L1210; 1 × 100 mg/kg i.p.): 41% ILS
Tox. i.p. ([1]; i.p. (Table 5)): ≈158.0 mg/kg
Tox. p.o. [1]: ≈841.0 p.o mg/kg

O=C(Nc1ccc(F)cc1)C(=O)c1cn(Cc2cccnc2)c2ccccc12 [Example 12, N-(4-Fluorophenyl)-[1(3-pyridylmethyl)indol-3-yl]glyoxylamide]
EC50 (KB cell line; KB tumor cells): > 31.6 mg/L
EC50 (L1210 cell line; [2]): 0.017 mg/L (≈ 0.0455 µM)
EC50 (LNCAP cell line; LNCaP tumor cells): > 31.6 mg/L
EC50 (SK-OV-3 cell line; [3]): > 31.6 mg/L

O=C(Nc1ccncc1)C(=O)c1cn(Cc2ccccn2)c2ccccc12 [Example 16, N-(Pyridin-4-yl)-[1-(2-pyridylmethyl)indol-3-yl]glyoxylamide]
EC50 (KB cell line; KB tumor cells): 4.59 mg/L (≈ 12.9 µM)
EC50 (L1210 cell line; [2]): 1.75 mg/L (≈ 4.91 µM)
EC50 (LNCAP cell line; LNCaP tumor cells): 17.5 mg/L (≈ 49.1 µM)
EC50 (SK-OV-3 cell line; [3]): 4.25 mg/L (≈ 11.9 µM)

O=C(Nc1ccncc1)C(=O)c1cn(Cc2cccnc2)c2ccccc12 [Example 10, N-(Pyridin-4-yl)-[1-(3-pyridylmethyl)indol-3-yl]glyoxylamide]
EC50 (KB cell line; KB tumor cells): 4.06 mg/L (≈ 11.4 µM)
EC50 (L1210 cell line; [2]): 1.75 mg/L (≈ 4.91 µM)
EC50 (LNCAP cell line; LNCaP tumor cells): > 31.6 mg/L
EC50 (SK-OV-3 cell line; [3]): 7.22 mg/L (≈ 20.3 µM)

O=C(Nc1ccncc1)C(=O)c1cn(Cc2ccccc2)c2ccccc12 [Example 9, N-(Pyridin-4-yl)-(1-benzylindol-3-yl)glyoxylamide]
EC50 (KB cell line): 0.05 mg/L (≈ 0.141 µM)
EC50 (L1210 cell line; [4]): 0.09 mg/L (≈ 0.253 µM)
EC50 (LNCAP cell line; LNCaP): 3.24 mg/L (≈ 9.12 µM)
EC50 (SK-OV-3 cell line; [5]): 1.75 mg/L (≈ 4.92 µM)

O=C(Nc1cccnc1)C(=O)c1cn(Cc2ccc(F)cc2)c2ccccc12 [Example 3, N-(Pyridin-3-yl)-[1-(4-fluorobenzyl)indol-3-yl]glyoxylamide]
EC50 (KB cell line; KB tumor cells): 1.75 mg/L (≈ 4.69 µM)
EC50 (L1210 cell line; [2]): 1.75 mg/L (≈ 4.69 µM)
EC50 (LNCAP cell line; LNCaP tumor cells): 9.25 mg/L (≈ 24.8 µM)
EC50 (SK-OV-3 cell line; [3]): 1.75 mg/L (≈ 4.69 µM)

N.N.[Cl][Pt][Cl] [Cisplatin, reference compound]
XTT EC50 L1210 (L1210 cell line): L1210 0.30 μg/ml
% ILS L1210 (L1210; 1 × 3.16 mg/kg i.p.): 38.9% ILS

O=C(Nc1ccc(F)cc1)C(=O)c1cn(Cc2ccccn2)c2ccccc12 [Example 11, N-(4-Fluorophenyl)-[1-(2-pyridylmethyl)indol-3-yl]glyoxylamide]
EC50 (KB cell line; KB tumor cells): 4.59 mg/L (≈ 12.3 µM)
EC50 (L1210 cell line; [2]): 1.75 mg/L (≈ 4.69 µM)
EC50 (LNCAP cell line; LNCaP tumor cells): 17.5 mg/L (≈ 46.9 µM)
EC50 (SK-OV-3 cell line; [3]): 4.25 mg/L (≈ 11.4 µM)

O=c1[nH]cc(F)c(=O)[nH]1 [5-Fluorouracil, reference compound]
ILS at 147 mg/kg (L1210; Mus musculus, L1210, ip, 1 × 147 mg/kg i.p.): 72%
ILS at 68.1 mg/kg (L1210; Mus musculus, L1210, ip, 4 × 68.1 mg/kg i.p.): 83%

O=C(Nc1ccncc1)C(=O)c1cn(Cc2ccccc2Cl)c2ccccc12 [Example 14, N-(Pyridin-4-yl)-[1-(2-chlorobenzyl)indol-3-yl]glyoxylamide]
EC50 (KB cell line; KB tumor cells): 1.75 mg/L (≈ 4.49 µM)
EC50 (L1210 cell line; [2]): 1.75 mg/L (≈ 4.49 µM)
EC50 (LNCAP cell line; LNCaP tumor cells): 17.5 mg/L (≈ 44.9 µM)
EC50 (SK-OV-3 cell line; [3]): 2.58 mg/L (≈ 6.62 µM)

CN(Cc1cnc2nc(N)nc(N)c2n1)c1ccc(C(=O)N[C@@H](CCC(=O)O)C(=O)O)cc1 [Methotrexate, reference compound]
EC50 (KB cell line; KB tumor cells): ~0.007 mg/L (≈ 0.0154 µM)
EC50 (SK-OV-3 cell line; [3]): > 31.6 mg/L
ILS at 53.7 mg/kg (L1210; Mus musculus, L1210, ip, 1 × 53.7 mg/kg i.p.): 39%

C/C=C/[C@@H]1O[C@H]([C@H](O)/C=C/C=C(\C)C[C@@H](C)/C=C(C)\C=C\[C@H]2CC=CC(=O)O2)C[C@@H](O)[C@@H]1C [Ratjadone, reference compound]
XTT EC50 KB (KB cell line; KB tumor cells): KB < 0.003 μg/ml
XTT EC50 L1210 (L1210 cell line): L1210 < 0.003 μg/ml
XTT EC50 LNCaP (LNCAP cell line; LNCaP tumor cells): LNCAP < 0.003 μg/ml
XTT EC50 SK-OV-3 (SK-OV-3 cell line): SKOV3 < 0.003 μg/ml
% ILS L1210 (L1210; 1 × 1.47 mg/kg i.p.): 22% ILS
Tox. i.p. ([1]; i.p. (Table 5)): ~16.0 mg/kg
Tox. i.v. ([1]; i.v. (Table 5)): ~30.0 i.v. mg/kg

O=C(Nc1cccnc1)C(=O)c1cn(Cc2ccccc2)c2ccccc12 [Example 4, N-(Pyridin-3-yl)-(1-benzylindol-3-yl)glyoxylamide]
EC50 (KB cell line): 17.5 mg/L (≈ 49.2 µM)
EC50 (L1210 cell line; [4]): 1.75 mg/L (≈ 4.92 µM)
EC50 (LNCAP cell line; LNCaP): > 31.6 mg/L
EC50 (SK-OV-3 cell line; [5]): 9.2 mg/L (≈ 25.9 µM)
